Measurements as given in patent publication US20230303569A1, “HETEROCYCLIC COMPOUNDS AS THERAPEUTIC AGENTS” (Arisan Therapeutics Inc., priority 2021, published 2023).
Like-named read-outs stand apart in the source and are kept apart here.

Legend:
Format in all cases: cell-based
[1] = target: T1, human Nav1.5 (pulse 1, tonic inhibition) (Homo sapiens, UniProt Q14524); experiment: Two pulse assay protocol, Nav1.5; conditions: HEK293 cells stably expressing human Nav1.5, pH 7.3, peak current, pulse 1 (tonic), read-out: percent inhibition hNav1.5, Pulse 1 (5 uM)
T1 construct: host or cells: HEK293
T1 sequence (Q14524 whole entry): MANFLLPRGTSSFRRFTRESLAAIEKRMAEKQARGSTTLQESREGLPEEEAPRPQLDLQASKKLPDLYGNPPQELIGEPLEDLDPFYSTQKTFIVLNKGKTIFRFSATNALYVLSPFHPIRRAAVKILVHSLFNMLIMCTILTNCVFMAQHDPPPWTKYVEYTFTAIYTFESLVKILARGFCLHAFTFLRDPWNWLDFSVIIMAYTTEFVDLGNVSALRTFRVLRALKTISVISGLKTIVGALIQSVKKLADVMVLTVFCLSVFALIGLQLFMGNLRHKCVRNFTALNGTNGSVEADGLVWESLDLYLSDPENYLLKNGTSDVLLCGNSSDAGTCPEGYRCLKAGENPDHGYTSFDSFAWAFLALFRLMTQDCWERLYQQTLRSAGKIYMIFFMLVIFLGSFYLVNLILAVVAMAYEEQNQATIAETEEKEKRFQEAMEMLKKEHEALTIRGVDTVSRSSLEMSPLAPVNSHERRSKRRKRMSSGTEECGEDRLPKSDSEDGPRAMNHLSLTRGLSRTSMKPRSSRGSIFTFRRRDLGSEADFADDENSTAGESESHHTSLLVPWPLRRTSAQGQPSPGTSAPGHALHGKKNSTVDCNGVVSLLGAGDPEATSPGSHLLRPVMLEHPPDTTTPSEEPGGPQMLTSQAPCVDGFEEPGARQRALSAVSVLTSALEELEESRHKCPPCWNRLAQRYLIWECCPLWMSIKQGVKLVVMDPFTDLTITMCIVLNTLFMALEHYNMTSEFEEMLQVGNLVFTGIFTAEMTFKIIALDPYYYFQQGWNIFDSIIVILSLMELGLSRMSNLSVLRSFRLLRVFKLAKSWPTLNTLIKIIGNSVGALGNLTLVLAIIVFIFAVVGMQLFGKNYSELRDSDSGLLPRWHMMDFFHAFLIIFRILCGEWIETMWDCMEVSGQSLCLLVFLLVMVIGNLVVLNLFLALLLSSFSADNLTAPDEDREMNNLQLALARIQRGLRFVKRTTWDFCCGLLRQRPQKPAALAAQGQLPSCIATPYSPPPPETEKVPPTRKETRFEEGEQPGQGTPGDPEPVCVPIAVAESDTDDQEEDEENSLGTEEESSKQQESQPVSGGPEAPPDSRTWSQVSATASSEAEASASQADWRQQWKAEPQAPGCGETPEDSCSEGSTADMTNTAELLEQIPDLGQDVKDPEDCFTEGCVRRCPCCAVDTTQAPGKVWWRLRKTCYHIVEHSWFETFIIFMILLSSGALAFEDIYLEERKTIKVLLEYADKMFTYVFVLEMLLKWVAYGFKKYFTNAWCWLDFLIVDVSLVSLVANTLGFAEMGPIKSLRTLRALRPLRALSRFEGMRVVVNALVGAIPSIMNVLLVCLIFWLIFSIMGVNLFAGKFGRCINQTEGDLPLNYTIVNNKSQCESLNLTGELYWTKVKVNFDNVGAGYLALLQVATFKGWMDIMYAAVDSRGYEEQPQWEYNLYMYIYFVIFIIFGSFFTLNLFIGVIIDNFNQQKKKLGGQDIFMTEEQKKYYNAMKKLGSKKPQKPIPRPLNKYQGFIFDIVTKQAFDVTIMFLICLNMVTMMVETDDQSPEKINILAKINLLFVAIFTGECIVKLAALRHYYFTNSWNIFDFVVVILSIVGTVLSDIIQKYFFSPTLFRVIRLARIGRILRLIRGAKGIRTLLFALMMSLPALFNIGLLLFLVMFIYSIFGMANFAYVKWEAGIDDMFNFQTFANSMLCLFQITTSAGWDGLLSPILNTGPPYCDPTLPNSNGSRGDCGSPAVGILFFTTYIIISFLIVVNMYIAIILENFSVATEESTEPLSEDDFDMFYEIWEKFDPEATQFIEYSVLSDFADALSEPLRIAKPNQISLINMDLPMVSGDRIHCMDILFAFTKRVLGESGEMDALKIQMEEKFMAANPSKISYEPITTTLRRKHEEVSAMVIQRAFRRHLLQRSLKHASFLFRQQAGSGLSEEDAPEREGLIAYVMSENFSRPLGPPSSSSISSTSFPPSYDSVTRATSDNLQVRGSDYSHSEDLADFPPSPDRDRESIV
Method: (§1) In vitro Na+ Current Inhibition Assays were performed by Eurofins Discovery (St Charles, MO). All compound functional activity determinations were determined through electrophysiological analyses of Na+ currents in HEK293 cells expressing a stably transfected Na+ channel (human Nav1.1, 1.2, 1.3, 1.5, 1.6, 1.7, or 1.8). After harvesting with Accutase cells are maintained in serum free medium at room temperature prior to electrophysiological recording utilizing the QPatch HT automated whole-cell patch-clamp platform (Sophion Bioscience, Woburn MA). Stock solution aliquots of the test compound are prepared in DMSO at 300× the final assay concentrations, and stored at −20° C. until the day of assay. On the day of the assay, an aliquot of the stock solution is thawed and diluted into external solution (137 mM NaCl, 4 mM KCl, 1 mM MgCl2, 1.8 mM CaCl2, 10 mM HEPES, 10 mM Glucose (pH 7.3, titrated with 10M NaOH) to make final test concentrations. A final concentration of 0.33% DMSO is maintained for each concentration of the assay compounds. Internal solution for recordings of Na+ consist consists of 100 mM CsF, 45 mM CsCl, 5 mM NaCl, 10 mM HEPES, 5 mM EGTA (pH 7.3, titrated with 1M CsOH).
(§2) Two pulse assay protocol for human Nav1.1, 1.2, 1.3, 1.5, 1.6, 1.7, and 1.8 channels. Mammalian cultured cells expressing the indicated human Nav1.1, 1.2, 1.3, 1.5, 1.6, 1.7 or 1.8 channels were assayed using the The QPatch HT (Sophion Bioscience, Woburn MA) automated system with an intracellular solution (mM) of 100 CsF, 45 CsCl, 5 NaCl, 10 HEPES, 5 EGTA (pH 7.3, titrated with 1M CsOH) and extracellular solution (mM) of 137 NaCl, 4 KCl, 1 MgCl2, 1.8 CaCl2, 10 HEPES, 10 Glucose (pH 7.3, titrated with 10M NaOH). Onset and steady state block of the sodium channel was measured using a pulse pattern, repeated every 20 seconds (s) from a holding potential of −120 mV for 100 ms, and then pulsed to 0 mV for 500 ms to inactivate the Na channels and facilitate inactivated state-dependent binding of the test compounds. The cell membranes were then stepped back to −120 mV for 10 ms to recover from inactivation into resting or closed state (channels with test compound bound to them will not recover from inactivation and will not open) before stepping to 0 mV for 50 ms (pulse 2) to measure Na channels that are available to open. Peak current was measured during the step to 0 mV at pulse 1 and 2 to measure tonic and state-dependent inhibition. Compound activities were assessed by dividing post current amplitude (at the end of each five (5) minute compound application) by the vehicle control amplitude and the mean calculated for each compound concentration. Tetracaine was used as a positive control and was tested concurrently with the test compounds. Current amplitudes in excess of 200 pA at the control stage were analyzed. The amplitude of the current was calculated by measuring the difference between the peak inward current on stepping to 0 mV (i.e. peak of the current) and remaining current at the end of the step. The current was assessed in vehicle control conditions and then at the end of each five (5) minute compound application.

[2] = target: T2, human Nav1.5 (pulse 2, state-dependent inhibition) (Homo sapiens, UniProt Q14524); experiment: Two pulse assay protocol, Nav1.5; conditions: HEK293 cells stably expressing human Nav1.5, pH 7.3, peak current, pulse 2 (state-dependent), read-out: percent inhibition hNav1.5, Pulse 2 (5 uM)
T2 construct: host or cells: HEK293
T2 sequence (Q14524 whole entry): as above
Method: as §1, §2

human Nav1.7 = target: T3, human Nav1.7 (Homo sapiens, UniProt Q15858); experiment: Two pulse assay protocol, Nav1.7; conditions: peak current
T3 construct: host or cells: HEK293
Method: as §1, §2

human Nav1.8 = target: T4, human Nav1.8 (Homo sapiens, UniProt Q9Y5Y9); experiment: Two pulse assay protocol, Nav1.8; conditions: peak current
T4 construct: host or cells: HEK293
Method: as §1, §2

[3] = target: T5, human Nav1.5 (late current) (Homo sapiens, UniProt Q14524); experiment: Nav1.5 Late Current Assay (QPatch HT whole-cell patch clamp, 30 nM ATX-II); conditions: HEK293 cells stably expressing human Nav1.5, pH 7.3, late current with 30 nM ATX-II, read-out: percent inhibition hNav1.5 Late (5 uM)
T5 construct: host or cells: HEK293
Method: as §1
Onset and steady state induction of late Nav1.5 current was measured using a pulse pattern, repeated every 5 sec, consisting of a hyperpolarizing pulse to −120 mV for a 200 ms duration, depolarization to −15 mV amplitude for a 40 ms duration, followed by step to 40 mV for 200 ms and finally a 100 ms ramp (1.2 V/s) to a holding potential of −80 mV. Each concentration of compound was applied for 5 minutes. The assay was performed at room temperature. After establishing vehicle control condition, all further addition of external solutions contain 30 nM ATX-II to activate late currents. Each concentration of compound was also co-applied with 30 nM ATXII to estimate the Nav1.5 late current inhibition. […]. ATXII was used as the agonist positive control and was tested concurrently with the test compound. Ranolazine was used as the positive control and was tested concurrently with the test compound.
Nav1.5 late current was measured as the total charge flowing through the Nav1.5 channels (area under the curve) 5 ms after the Nav1.5 peak current till the end of the test pulse and as charge at their maxima during the ramp. Individual cell results were normalized to their respective vehicle control and the results were averaged. The sodium current was assessed in 30 nM ATXII as vehicle control conditions and then at the end of each five (5) minute compound application in the presence of 30 nM ATXII. Individual cell result was normalized to 30 nM ATXII vehicle control amplitude and the mean±SEM calculated for each compound concentration.

[4] = target: T6, human Nav1.5 (peak current) (Homo sapiens, UniProt Q14524); experiment: Nav1.5 Peak Current Assay (QPatch HT whole-cell patch clamp); conditions: HEK293 cells stably expressing human Nav1.5, pH 7.3, peak current at step to -15 mV, read-out: percent inhibition hNav1.5 Peak (5 uM)
T6 construct: host or cells: HEK293
Method: as §1
Onset and steady state block of peak Nav1.5 current was measured using a pulse pattern, repeated every 5 sec, consisting of a hyperpolarizing pulse to −120 mV for a 200 ms duration, depolarization to -15 mV amplitude for a 40 ms duration, followed by step to 40 mV for 200 ms and finally a 100 ms ramp (1.2 V/s) to a holding potential of −80 mV. Peak current was measured during the step to −15 mV.
Each concentration of compound was applied for 5 minutes. The assay was performed at room temperature and Tetracaine was used concurrently as a positive control. Only current amplitudes in excess of 200 pA at the control stage were analyzed. The amplitude of the sodium current was calculated by measuring the difference between the peak inward current on stepping to −15 mV (i.e. peak of the current) and the leak current. The sodium current was assessed in vehicle control conditions and then at the end of each five (5) minute compound application. Individual cell result was normalized to the vehicle control amplitude and the mean±SEM calculated for each compound concentration.

human Nav1.6 = target: T7, human Nav1.6 (Homo sapiens, UniProt Q9UQD0); experiment: Two pulse assay protocol, Nav1.6; conditions: 5 uM, peak current
T7 construct: host or cells: HEK293
Method: as §1, §2

human Nav1.2 = target: T8, human Nav1.2 (Homo sapiens, UniProt Q99250); experiment: Two pulse assay protocol, Nav1.2; conditions: peak current
T8 construct: host or cells: HEK293
Method: as §1, §2

[5] = pulse 1 (tonic), read-out: percent inhibition hNav1.7, Pulse 1 (5 uM)
[6] = pulse 2 (state-dependent), read-out: percent inhibition hNav1.7, Pulse 2 (5 uM)
[7] = pulse 1 (tonic), read-out: percent inhibition hNav1.6, Pulse 1 (5 uM)
[8] = pulse 2 (state-dependent), read-out: percent inhibition hNav1.6, Pulse 2 (5 uM)
[9] = pulse 1 (tonic), read-out: percent inhibition hNav1.2, Pulse 1 (5 uM)
[10] = pulse 2 (state-dependent), read-out: percent inhibition hNav1.2, Pulse 2 (5 uM)

inhibition at 5 µM (human Nav1.7; [5]) [%] | inhibition at 5 µM (human Nav1.7; [6]) [%] | inhibition at 5 µM (human Nav1.6; [7]) [%] | inhibition at 5 µM (human Nav1.6; [8]) [%] | inhibition at 5 µM (human Nav1.2; [9]) [%] | inhibition at 5 µM (human Nav1.2; [10]) [%] | Compound | inhibition at 5 min, 5 µM [1] [%] | inhibition at 5 min, 5 µM [2] [%] | inhibition at 5 µM (human Nav1.8; pulse 1 (tonic), read-out: percent inhibition hNav1.8, Pulse 1 (5 uM)) [%] | inhibition at 5 µM (human Nav1.8; pulse 2 (state-dependent), read-out: percent inhibition hNav1.8, Pulse 2 (5 uM)) [%] | inhibition at 5 min, 5 uM [3] [%] | inhibition at 5 min, 5 µM [4] [%]
– | – | < 50 | < 50 | – | – | Cc1cc2ncc(-c3ccc(OC(C)C)nc3)n2cc1-c1ccc(OC(C)C)cc1 [Example C70, 6-(4-isopropoxyphenyl)-3-(6-isopropoxypyridin-3-yl)-7-methylimidazo[1,2-a]pyridine] | – | – | – | – | 50 to 90 | < 50
< 50 | > 90 | < 50 | > 90 | < 50 | > 90 | CC(C)Oc1ccc(-c2ccc3ncc(-c4ccc(Oc5ccccc5)cc4)n3c2)cc1 [Example C72, 6-(4-isopropoxyphenyl)-3-(4-phenoxyphenyl)imidazo[1,2-a]pyridine] | < 50 | 50 to 90 | – | – | – | –
< 50 | 50 to 90 | < 50 | > 90 | < 50 | > 90 | CC(C)Oc1ccc(-c2ccc3ncc(-c4ccc(C(C)C)cc4)n3c2)cc1 [Example C73, 6-(4-isopropoxyphenyl)-3-(4-isopropylphenyl)imidazo[1,2-a]pyridine] | < 50 | > 90 | – | – | – | –

Compound | inhibition at 5 µM (human Nav1.7; [5]) [%] | inhibition at 5 µM (human Nav1.7; [6]) [%] | inhibition at 5 µM (human Nav1.6; [7]) [%] | inhibition at 5 µM (human Nav1.6; [8]) [%] | inhibition at 5 µM (human Nav1.2; [9]) [%] | inhibition at 5 µM (human Nav1.2; [10]) [%] | inhibition at 5 min, 5 µM [1] [%] | inhibition at 5 min, 5 µM [2] [%] | inhibition at 5 µM (human Nav1.8; pulse 1 (tonic), read-out: percent inhibition hNav1.8, Pulse 1 (5 uM)) [%] | inhibition at 5 µM (human Nav1.8; pulse 2 (state-dependent), read-out: percent inhibition hNav1.8, Pulse 2 (5 uM)) [%] | inhibition at 5 min, 5 uM [3] [%] | inhibition at 5 min, 5 µM [4] [%]
CS(=O)(=O)NC(=O)c1cc2ncc(-c3ccc(OC(F)(F)F)cc3)n2cc1-c1ccccc1 [Example C68, N-(methylsulfonyl)-6-phenyl-3-(4-(trifluoromethoxy)phenyl)imidazo[1,2-a]pyridine-7-carboxamide] | < 50 | < 50 | – | – | – | – | < 50 | < 50 | < 50 | < 50 | – | –
